Data on 15 molecules can be found in patent US20240067632A1, “WEE1 Degrading Compounds and Uses Thereof” (Bristol-Myers Squibb Company, priority 2022, published 2024).

The target in experiment [1] is T1, WEE1 (Homo sapiens, UniProt P30291+Q96SW2).
T1 construct: C-terminal ePL-tagged (DiscoverX, Fremont, CA) full-length WEE1 expression construct; expressed in transfected cells; host or cells: LentiX-HEK293T (Invitrogen), lentiviral transduction; co-expressing GSPT1-GN (G576N, lacking the first 158 amino acids)
Nature of the experiment: WEE1-ePL degradation assay (LentiX-WEE1-ePL-GSPT1-ND cells, InCELL Hunter luminescence, 4 h). The experiment is classed as cell-based. To be noted: 293T-LentiX WEE1-ePL cells; for 293T-LentiX WEE1-ePL Degradation 4 hr (Ymin): lower limit of the fit (0 = luciferase inhibitor, Ymax = DMSO control); for DC50: read-out: 293T-LentiX WEE1-ePL Degradation 4 hr (EC50). The procedure:
To generate LentiX-WEE1-ePL-GSPT1-ND cells for the WEE1 degradation assay, LentiX-HEK293T (Invitrogen) were transduced by lentivirus with a C-terminal ePL-tagged (DiscoverX, Fremont, CA) full-length WEE1 expression construct. […] Cells were selected and maintained in complete DMEM media (DMEM, 10% Heat Inactivated FBS, 400 μg/mL Geneticin, and 1 μg/mL puromycin at 37 C and 5% CO2). Cells were passaged every 3-4 days by reseeding 1×10^6 cells in a T150 flask.
Cells were dispensed into 384-well white plates (Corning #3570, NY) that were pre-spotted with compounds using an acoustic dispenser (Echo acoustic transfer system, Beckman Coulter Life Sciences, Carlsbad, CA) as a 10-point dose-response curve with a 3-fold dilution starting at either 1 uM or 10 uM and including a DMSO control. Twenty-five microliters of media containing 2500 cells for LentiX-oeWEE1-ePL was dispensed per well. Assay plates were incubated at 37° C. with 5% CO2 for four hours (WEE1) After incubation, 25 μL of the InCELL Hunter™ Detection Reagent Working Solution (DiscoverX, Fremont, CA) was added to each well and incubated at room temperature for 30 minutes protected from light. After 30 minutes, luminescence was read on a PHERAstar luminometer (Cary, NC).
To determine the half-maximal effective concentration (EC50) values for WEE1-ePL degradation, a four parameter logistic model was used: (Sigmoidal Dose-Response Model) (FIT=(A+((B−A)/1+((C/x)^D)))) where C is the inflection point (EC50), D is the Hill slope, and A and B are the low and high limits of the fit respectively). The lower limit of the fit (value A) is referred to as Ymin. […] The maximum limit constraint, Ymax, is similarly derived using DMSO control. The curves were processed and evaluated using Activity Base (IDBS, Alameda, CA).

The subject of experiment [2] is MKN45 cells. The experiment is described as follows: MKN45 cell proliferation assay (Cell-Titer-Glo, 120 h). In kind it is cell-based. To be noted: for EC50: Homo sapiens, MKN-45, 120 h, Cell-Titer-Glo, read-out: MKN45 Cell Prolif. 120 hr (EC50); for MKN45 Cell Prolif. 120 hr (Ymin-Obs): minimal percent of DMSO control observed in the concentrations tested. The protocol: MKN45 cells were obtained from Celgene internal cell banks and cultured in RPMI complete media (RPMI-1640, 1× Penicillin/Streptomycin, 1× glutamine, 1× Sodium Pyruvate, Non-essential Amino Acids, 10% Fetal Bovine serum, all component from Thermo-Fisher). Compounds were dispensed into 384-well plates using an HP DE300 compound printer in triplicate with 8 compounds on each plate. For each compound, a 10-point dose response was printed at half-log dilutions starting at either 1 uM or 10 uM. The DMSO concentration was kept constant for a final assay concentration of 0.1% per well assuming 50 ul final media volume. Compound plates were sealed and frozen at −20 C until use.
For each assay batch, compound plates were thawed and allowed to reach room temperature, and cells were seeded at 400 cells per well in 50 ul complete RPMI media. After 120 hours of incubation at 37 C and 5% CO2, cells were lysed by addition of 25 μL of Cell-Titer-Glo Reagent (Promega Corporation, Madison, WI), as per manufacturer's instructions, protected from light, shaken for 45 minutes, and total luminescence read by a Perkin Elmer Envision plate reader. Total luminescence signal is linearly correlated with cell number remaining in the well.
Luminescence data was processed per plate by subtracting reagent-only “blank” well luminescence from all measured values and calculating a percent of DMSO control value for each treatment well. Then, to determine the half-maximal effective concentration (EC50) values for cell growth inhibition, a four parameter logistic model was fit to the data for each DMSO-normalized compound: Sigmoidal Dose-Response Model: (FIT=(A+((B−A)/1+((C/x)^D)))) where C is the inflection point (EC50), D is the Hill slope, and A and B are the low and high limits of the fit respectively. The lower limit of the fit (value A) is referred to as Ymin-calculated. The minimal percent of DMSO control that is observed in the concentrations tested for each compound is labeled as “Ymin-obs”, and was recorded and reported in the tables. Sigmoidal fit curves were processed and evaluated using Activity Base (IDBS, Alameda, CA).

Where two headings read alike, the source gives them in different places.

Turning to `O=C1CCC(N2Cc3cc(O[C@H]4CCN(Cc5ccc6nc(N7C[C@@H]8C9CCC(O9)[C@@H]8C7)ccc6c5)C4)ccc3C2=O)C(=O)N1` (stereo partly drawn), in experiment [1], the “293T-LentiX WEE1-ePL Degradation 4 hr (Ymin)” value is 38 and the DC50 turned out to be 0.00319 µM. In experiment [2] (growth inhibition), the EC50 was 0.00383 µM. Besides, the “MKN45 Cell Prolif. 120 hr (Ymin-Obs)” value in experiment [2] was 10.93.

`O=C1CCC(N2Cc3cc(O[C@H]4CCN(Cc5ccc6nc(N7C[C@@H]8C9CCC(O9)[C@@H]8C7)ncc6c5)C4)ccc3C2=O)C(=O)N1` (stereo partly drawn): in experiment [1], the “293T-LentiX WEE1-ePL Degradation 4 hr (Ymin)” value worked out at 35 and the DC50 is 0.00925 µM. Further, the concentration for a half-maximal effect (EC50) in experiment [2] (growth inhibition) turned out to be 0.0105 µM. For the same molecule, the “MKN45 Cell Prolif. 120 hr (Ymin-Obs)” value in experiment [2] came to 12.82.

Regarding `O=C1CC[C@H](N2Cc3cc(O[C@H]4CCN(Cc5ccc6nc([C@@H]7CCOC7)ncc6c5)C4)ccc3C2=O)C(=O)N1`, in experiment [1], the “293T-LentiX WEE1-ePL Degradation 4 hr (Ymin)” value is 33 and the DC50 is 0.018 µM. In addition, the EC50 in experiment [2] (growth inhibition) came to 0.013 µM. Further, the “MKN45 Cell Prolif. 120 hr (Ymin-Obs)” value in experiment [2] was 9.409.

On to `O=C1CCC(N2Cc3cc(O[C@@H]4CCN(Cc5ccc6nc([C@@H]7CCOC7)ncc6c5)C4)ccc3C2=O)C(=O)N1` (relative stereo) [rel-3-(1-oxo-5-{[(3R)-1-({2-[(3S)-oxolan-3-yl]quinazolin-6-yl}methyl)pyrrolidin-3-yl]oxy}-2,3-dihydro-1H-isoindol-2-yl)piperidine-2,6-dione], for which, in experiment [1], the “293T-LentiX WEE1-ePL Degradation 4 hr (Ymin)” value was 34 and the DC50 came to 0.0218 µM. In addition, in experiment [2] (growth inhibition), the concentration for a half-maximal effect (EC50) turned out to be 0.0185 µM. In addition, the “MKN45 Cell Prolif. 120 hr (Ymin-Obs)” value in experiment [2] is 7.06.

`CC(c1cnc2ccccc2c1)N1CC[C@@H](Oc2ccc3c(c2)CN(C2CCC(=O)NC2=O)C3=O)C1` (stereo in doubt) [rel-3-(1-oxo-5-{[(3R)-1-[1-(quinolin-3-yl)ethyl]pyrrolidin-3-yl]oxy}-2,3-dihydro-1H-isoindol-2-yl)piperidine-2,6-dione]: in experiment [1], the “293T-LentiX WEE1-ePL Degradation 4 hr (Ymin)” value is 50.89 and the DC50 was found to be 0.0834 µM. In experiment [2] (growth inhibition), the EC50 is greater than 10 µM. For the same molecule, the “MKN45 Cell Prolif. 120 hr (Ymin-Obs)” value in experiment [2] is 76.71.

For the molecule `O=C1CCC(N2Cc3cc(O[C@@H]4CCN(Cc5cnc6ccccc6c5)C4)ccc3C2=O)C(=O)N1` (stereo in doubt) [rel-3-(1-oxo-5-{[(3R)-1-[(quinolin-3-yl)methyl]pyrrolidin-3-yl]oxy}-2,3-dihydro-1H-isoindol-2-yl)piperidine-2,6-dione], in experiment [1], the “293T-LentiX WEE1-ePL Degradation 4 hr (Ymin)” value is reported as 26.82 and the DC50 came out at 0.00657 µM. In addition, the concentration for a half-maximal effect (EC50) in experiment [2] (growth inhibition) is 0.057 µM. Besides, in experiment [2], the “MKN45 Cell Prolif. 120 hr (Ymin-Obs)” value was found to be 11.39.

Consider `O=C1CCC(N2C(=O)c3ccc(O[C@H]4CCN(Cc5cnc6ccccc6c5)C4)cc3C2=O)C(=O)N1` (stereo partly drawn) [2-(2,6-dioxopiperidin-3-yl)-5-{[(3S)-1-[(quinolin-3-yl)methyl]pyrrolidin-3-yl]oxy}-2,3-dihydro-1H-isoindole-1,3-dione], for which, in experiment [1], the “293T-LentiX WEE1-ePL Degradation 4 hr (Ymin)” value was determined as 30.205 and the DC50 came out at 0.0329 µM. In addition, the 50% effective concentration (EC50) in experiment [2] (growth inhibition) came out at 0.621 µM. In addition, the “MKN45 Cell Prolif. 120 hr (Ymin-Obs)” value in experiment [2] is recorded as 15.39.

Turning to `O=C1CCC(N2C(=O)c3ccc(O[C@H]4CCN(Cc5ccnc6ccccc56)C4)cc3C2=O)C(=O)N1` (stereo partly drawn) [2-(2,6-dioxopiperidin-3-yl)-5-{[(3S)-1-[(quinolin-4-yl)methyl]pyrrolidin-3-yl]oxy}-2,3-dihydro-1H-isoindole-1,3-dione], in experiment [1], the “293T-LentiX WEE1-ePL Degradation 4 hr (Ymin)” value is reported as 38.05 and the DC50 was 1.23 µM. Moreover, the EC50 in experiment [2] (growth inhibition) came out at 2.51 µM. Further, the “MKN45 Cell Prolif. 120 hr (Ymin-Obs)” value in experiment [2] turned out to be 48.18.

For the molecule `O=C1CCC(N2C(=O)c3ccc(O[C@H]4CCN(Cc5cccc6ncccc56)C4)cc3C2=O)C(=O)N1` (stereo partly drawn) [2-(2,6-dioxopiperidin-3-yl)-5-{[(3S)-1-[(quinolin-5-yl)methyl]pyrrolidin-3-yl]oxy}-2,3-dihydro-1H-isoindole-1,3-dione], in experiment [1], the “293T-LentiX WEE1-ePL Degradation 4 hr (Ymin)” value is 30.52 and the DC50 was found to be 0.0792 µM. Besides, in experiment [2] (growth inhibition), the EC50 turned out to be 2.23 µM. In addition, in experiment [2], the “MKN45 Cell Prolif. 120 hr (Ymin-Obs)” value was 44.93.

Consider `O=C1CCC(N2C(=O)c3ccc(O[C@H]4CCN(Cc5ccc6ncccc6c5)C4)cc3C2=O)C(=O)N1` (stereo partly drawn) [2-(2,6-dioxopiperidin-3-yl)-5-{[(3S)-1-[(quinolin-6-yl)methyl]pyrrolidin-3-yl]oxy}-2,3-dihydro-1H-isoindole-1,3-dione], for which, in experiment [1], the “293T-LentiX WEE1-ePL Degradation 4 hr (Ymin)” value is 29.65 and the DC50 came to 0.0434 µM. In addition, the EC50 in experiment [2] (growth inhibition) was 1.03 µM. Further, in experiment [2], the “MKN45 Cell Prolif. 120 hr (Ymin-Obs)” value stood at 21.24.

`O=C1CCC(N2Cc3cc(O[C@H]4CCN(Cc5ccc6nc([C@H]7C[C@H](O)C7)ccc6c5)C4)ccc3C2=O)C(=O)N1` (stereo partly drawn) [3-(1-oxo-5-{[(3S)-1-({2-[(1r,3r)-3-hydroxycyclobutyl]quinolin-6-yl}methyl)pyrrolidin-3-yl]oxy}-2,3-dihydro-1H-isoindol-2-yl)piperidine-2,6-dione]: in experiment [1], the “293T-LentiX WEE1-ePL Degradation 4 hr (Ymin)” value worked out at 32 and the DC50 came to 0.0038 µM. The EC50 in experiment [2] (growth inhibition) worked out at 0.00502 µM. For the same molecule, the “MKN45 Cell Prolif. 120 hr (Ymin-Obs)” value in experiment [2] is reported as 7.85.

As for `COC[C@H]1CC[C@H](c2ccc3cc(CN4CC[C@H](Oc5ccc6c(c5)CN(C5CCC(=O)NC5=O)C6=O)C4)ccc3n2)CC1` (stereo partly drawn) [3-(1-oxo-5-{[(3S)-1-({2-[(1r,4r)-4-(methoxymethyl)cyclohexyl]quinolin-6-yl}methyl)pyrrolidin-3-yl]oxy}-2,3-dihydro-1H-isoindol-2-yl)piperidine-2,6-dione], in experiment [1], the “293T-LentiX WEE1-ePL Degradation 4 hr (Ymin)” value came out at 33.24 and the DC50 amounted to 0.00157 µM. In experiment [2] (growth inhibition), the EC50 came out at 0.00256 µM. Moreover, in experiment [2], the “MKN45 Cell Prolif. 120 hr (Ymin-Obs)” value was found to be 14.13.

Regarding `O=C1CC[C@H](N2Cc3cc(O[C@H]4CCN(Cc5ccc6nc(C7CCOCC7)ncc6c5F)C4)ccc3C2=O)C(=O)N1` [(3S)-3-(5-{[(3S)-1-{[5-fluoro-2-(oxan-4-yl)quinazolin-6-yl]methyl}pyrrolidin-3-yl]oxy}-1-oxo-2,3-dihydro-1H-isoindol-2-yl)piperidine-2,6-dione], in experiment [2], the EC50 is 0.0171 µM and the “MKN45 Cell Prolif. 120 hr (Ymin-Obs)” value was determined as 9.88.

`O=C1CC[C@H](N2Cc3cc(O[C@H]4CCN(Cc5cc(F)c6nc(N7CCOCC7)ccc6c5)C4)ccc3C2=O)C(=O)N1` [(3S)-3-(5-{[(3S)-1-{[8-fluoro-2-(morpholin-4-yl)quinolin-6-yl]methyl}pyrrolidin-3-yl]oxy}-1-oxo-2,3-dihydro-1H-isoindol-2-yl)piperidine-2,6-dione]: in experiment [2], the EC50 worked out at 0.00719 µM and the “MKN45 Cell Prolif. 120 hr (Ymin-Obs)” value was determined as 12.7.

On to `COC[C@@H]1CN(Cc2ccc3nc(C4CCOCC4)ccc3c2)C[C@H]1Oc1ccc2c(c1)CN([C@H]1CCC(=O)NC1=O)C2=O` [(3S)-3-(5-{[(3S,4S)-4-(methoxymethyl)-1-{[2-(oxan-4-yl)quinolin-6-yl]methyl}pyrrolidin-3-yl]oxy}-1-oxo-2,3-dihydro-1H-isoindol-2-yl)piperidine-2,6-dione], for which, in experiment [2], the EC50 amounted to 0.000728 µM and the “MKN45 Cell Prolif. 120 hr (Ymin-Obs)” value is reported as 9.194.
